Test [1] concerns the target PIK3CA (human) (UniProt P42336). The experiment in a line: Enzyme Assay.
Test [2] deals with PIK3CB (Human) (UniProt P42338). The experiment in a line: Enzyme Assay.
Test [3] deals with PIK3CD (Human) (UniProt O00329). The experiment in a line: Enzyme Assay.
Test [4] deals with PIK3CG (human) (UniProt P48736). The experiment in a line: Enzyme Assay.
In test [5] the target is PIK3CD (Human) (UniProt O00329). The experiment in a line: Cell-Based Assay. To be noted: b cells.

The structures appear in SMILES notation.

Chain of PIK3CG (human) (P48736 whole entry, looked up): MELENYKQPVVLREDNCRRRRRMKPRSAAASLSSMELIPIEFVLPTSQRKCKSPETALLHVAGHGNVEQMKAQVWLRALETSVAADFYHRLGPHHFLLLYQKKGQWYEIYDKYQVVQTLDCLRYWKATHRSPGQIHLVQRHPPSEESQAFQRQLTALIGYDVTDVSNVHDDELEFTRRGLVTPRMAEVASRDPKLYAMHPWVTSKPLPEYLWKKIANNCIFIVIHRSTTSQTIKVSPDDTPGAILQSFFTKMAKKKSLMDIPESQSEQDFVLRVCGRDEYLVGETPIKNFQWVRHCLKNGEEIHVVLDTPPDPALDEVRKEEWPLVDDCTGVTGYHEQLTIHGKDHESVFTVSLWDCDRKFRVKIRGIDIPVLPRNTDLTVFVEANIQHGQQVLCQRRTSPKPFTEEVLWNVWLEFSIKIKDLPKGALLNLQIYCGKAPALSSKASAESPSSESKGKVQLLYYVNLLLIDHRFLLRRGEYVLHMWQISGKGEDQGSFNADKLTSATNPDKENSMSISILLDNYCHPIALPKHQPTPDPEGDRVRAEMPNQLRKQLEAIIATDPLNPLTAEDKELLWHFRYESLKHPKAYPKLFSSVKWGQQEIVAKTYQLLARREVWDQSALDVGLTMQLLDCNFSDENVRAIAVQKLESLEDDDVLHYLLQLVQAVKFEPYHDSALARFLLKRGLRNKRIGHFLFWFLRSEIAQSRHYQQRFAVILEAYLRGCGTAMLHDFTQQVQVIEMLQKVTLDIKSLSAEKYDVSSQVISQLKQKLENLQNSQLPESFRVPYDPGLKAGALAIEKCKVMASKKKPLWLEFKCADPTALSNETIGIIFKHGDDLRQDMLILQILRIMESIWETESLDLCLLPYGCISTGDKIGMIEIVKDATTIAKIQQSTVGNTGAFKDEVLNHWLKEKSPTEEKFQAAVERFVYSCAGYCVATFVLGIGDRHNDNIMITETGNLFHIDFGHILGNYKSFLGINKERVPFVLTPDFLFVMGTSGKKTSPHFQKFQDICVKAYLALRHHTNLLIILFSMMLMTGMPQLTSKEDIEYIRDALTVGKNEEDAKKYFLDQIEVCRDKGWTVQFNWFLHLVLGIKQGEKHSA
Chain of PIK3CA (human) (P42336 whole entry, looked up): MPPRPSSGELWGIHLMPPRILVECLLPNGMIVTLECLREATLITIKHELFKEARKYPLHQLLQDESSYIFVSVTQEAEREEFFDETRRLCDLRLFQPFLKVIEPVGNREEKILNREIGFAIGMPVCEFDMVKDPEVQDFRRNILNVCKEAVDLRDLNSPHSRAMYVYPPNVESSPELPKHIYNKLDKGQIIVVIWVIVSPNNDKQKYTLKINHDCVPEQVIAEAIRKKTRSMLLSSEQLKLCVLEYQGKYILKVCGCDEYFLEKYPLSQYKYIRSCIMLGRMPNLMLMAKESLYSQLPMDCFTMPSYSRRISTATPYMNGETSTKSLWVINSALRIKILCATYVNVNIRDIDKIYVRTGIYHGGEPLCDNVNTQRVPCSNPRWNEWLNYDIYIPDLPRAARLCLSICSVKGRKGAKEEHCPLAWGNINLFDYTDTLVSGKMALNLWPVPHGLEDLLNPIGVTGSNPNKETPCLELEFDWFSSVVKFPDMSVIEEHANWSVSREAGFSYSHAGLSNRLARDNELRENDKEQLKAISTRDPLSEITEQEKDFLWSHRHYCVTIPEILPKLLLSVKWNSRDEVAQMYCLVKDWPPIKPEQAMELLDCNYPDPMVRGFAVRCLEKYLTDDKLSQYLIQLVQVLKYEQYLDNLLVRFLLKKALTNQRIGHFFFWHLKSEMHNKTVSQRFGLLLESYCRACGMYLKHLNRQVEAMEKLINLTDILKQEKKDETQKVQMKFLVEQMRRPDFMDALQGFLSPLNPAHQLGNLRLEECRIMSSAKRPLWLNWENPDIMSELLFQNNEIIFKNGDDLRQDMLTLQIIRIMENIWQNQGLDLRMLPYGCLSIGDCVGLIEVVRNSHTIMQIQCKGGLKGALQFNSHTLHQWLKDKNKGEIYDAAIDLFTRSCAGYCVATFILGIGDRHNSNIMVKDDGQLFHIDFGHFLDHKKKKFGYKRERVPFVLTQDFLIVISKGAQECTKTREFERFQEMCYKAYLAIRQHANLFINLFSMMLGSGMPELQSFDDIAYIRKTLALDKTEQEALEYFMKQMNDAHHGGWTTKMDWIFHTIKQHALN
Chain of PIK3CD (Human) (O00329 whole entry, looked up): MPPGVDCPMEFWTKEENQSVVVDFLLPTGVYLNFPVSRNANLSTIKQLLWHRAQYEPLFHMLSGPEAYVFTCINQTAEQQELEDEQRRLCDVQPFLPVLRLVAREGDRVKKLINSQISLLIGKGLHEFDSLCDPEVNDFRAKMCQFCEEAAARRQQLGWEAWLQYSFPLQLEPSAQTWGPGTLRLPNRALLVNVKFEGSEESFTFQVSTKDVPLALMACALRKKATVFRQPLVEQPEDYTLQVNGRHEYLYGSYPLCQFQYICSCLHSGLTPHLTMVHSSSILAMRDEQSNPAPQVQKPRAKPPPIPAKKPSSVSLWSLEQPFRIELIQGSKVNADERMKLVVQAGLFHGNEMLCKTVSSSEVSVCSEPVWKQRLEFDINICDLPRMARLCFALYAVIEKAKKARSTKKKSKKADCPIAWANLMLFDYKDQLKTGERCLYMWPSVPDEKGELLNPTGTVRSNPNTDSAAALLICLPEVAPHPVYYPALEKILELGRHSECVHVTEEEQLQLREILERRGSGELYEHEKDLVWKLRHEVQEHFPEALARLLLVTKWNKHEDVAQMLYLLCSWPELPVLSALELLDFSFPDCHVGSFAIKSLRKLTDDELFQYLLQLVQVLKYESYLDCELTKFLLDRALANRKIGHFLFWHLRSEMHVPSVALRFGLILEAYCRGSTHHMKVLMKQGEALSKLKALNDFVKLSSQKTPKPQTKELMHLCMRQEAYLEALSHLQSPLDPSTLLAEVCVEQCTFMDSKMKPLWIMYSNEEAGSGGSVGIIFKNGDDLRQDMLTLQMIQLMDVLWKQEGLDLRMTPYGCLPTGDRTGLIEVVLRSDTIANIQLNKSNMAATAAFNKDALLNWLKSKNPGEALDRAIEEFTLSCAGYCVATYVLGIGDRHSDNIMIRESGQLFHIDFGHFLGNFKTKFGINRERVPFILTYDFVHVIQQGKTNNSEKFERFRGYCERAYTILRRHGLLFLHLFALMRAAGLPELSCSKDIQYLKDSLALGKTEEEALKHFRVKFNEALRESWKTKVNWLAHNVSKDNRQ
Chain of PIK3CB (Human) (P42338 whole entry, looked up): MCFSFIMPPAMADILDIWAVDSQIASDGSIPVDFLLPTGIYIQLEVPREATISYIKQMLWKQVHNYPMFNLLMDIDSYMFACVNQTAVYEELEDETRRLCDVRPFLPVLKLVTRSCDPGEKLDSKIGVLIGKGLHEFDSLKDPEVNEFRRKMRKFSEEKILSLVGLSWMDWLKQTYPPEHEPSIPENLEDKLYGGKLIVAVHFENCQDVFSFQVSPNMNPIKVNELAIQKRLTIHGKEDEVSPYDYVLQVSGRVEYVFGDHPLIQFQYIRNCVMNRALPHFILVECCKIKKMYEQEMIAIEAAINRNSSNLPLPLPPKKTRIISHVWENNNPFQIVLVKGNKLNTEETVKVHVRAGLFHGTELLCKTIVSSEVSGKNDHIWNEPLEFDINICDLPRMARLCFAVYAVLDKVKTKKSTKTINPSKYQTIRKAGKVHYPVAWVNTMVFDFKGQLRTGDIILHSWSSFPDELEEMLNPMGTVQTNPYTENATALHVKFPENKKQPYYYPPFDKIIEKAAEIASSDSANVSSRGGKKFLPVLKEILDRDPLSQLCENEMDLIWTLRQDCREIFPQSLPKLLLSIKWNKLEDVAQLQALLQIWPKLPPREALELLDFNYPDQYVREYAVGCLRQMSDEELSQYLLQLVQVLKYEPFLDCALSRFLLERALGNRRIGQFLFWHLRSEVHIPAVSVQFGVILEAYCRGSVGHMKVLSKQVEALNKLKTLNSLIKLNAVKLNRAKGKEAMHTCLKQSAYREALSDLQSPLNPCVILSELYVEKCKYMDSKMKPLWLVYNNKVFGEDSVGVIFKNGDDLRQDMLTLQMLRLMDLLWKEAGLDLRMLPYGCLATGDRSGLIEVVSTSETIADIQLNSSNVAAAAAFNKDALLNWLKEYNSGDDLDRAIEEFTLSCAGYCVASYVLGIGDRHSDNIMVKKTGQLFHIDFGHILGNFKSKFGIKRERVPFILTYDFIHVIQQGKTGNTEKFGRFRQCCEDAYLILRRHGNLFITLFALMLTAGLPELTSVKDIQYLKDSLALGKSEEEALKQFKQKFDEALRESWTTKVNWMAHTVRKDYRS

For `Cc1ncccc1-c1nc2c(Cl)cccc2cc1[C@H](C)Nc1ncnc2[nH]cnc12`, the IC50 (in general, the concentration that gives 50% inhibition) in test [1] is 13000 nM; in test [2], 1260 nM; in test [3], 18 nM; in test [4], 120 nM; in test [5], 4.3 nM.
Taken in the same sequence, the figures for `COc1ccccc1-c1nc2c(C)cccc2cc1COc1ncnc2[nH]cnc12` were > 125000 nM, 2900 nM, 44 nM, 2600 nM and 88 nM.
The like results for `C[C@H](Nc1ncnc2[nH]cnc12)c1cc2cccc(F)c2nc1-c1cc(F)cc(F)c1` were, in that order, 9000 nM, 4500 nM, 12 nM, 360 nM and 11 nM.
Taken in the same sequence, the figures for `C[C@H](Nc1ncnc2[nH]cnc12)c1nc2cccc(Cl)c2nc1-c1ccccn1` were 46000 nM, 1090 nM, 5.2 nM, 440 nM and 12 nM.
On to `Cc1ccccc1-c1nc2c(C)cccc2cc1CNc1ncnc2[nH]cnc12`, for which the half-inhibitory concentration (IC50) was 37000 nM in test [1]; 2100 nM in test [2]; 41 nM in test [3]; 290 nM in test [4]; 51 nM in test [5].
Taken in the same sequence, the figures for `C[C@H](Nc1ncnc2[nH]cnc12)c1cc2cccc(F)c2nc1-c1cccnc1` were 81000 nM, 2900 nM, 16 nM, 830 nM and 15 nM.
Regarding `Cc1ccccc1-c1nc2c(C)cccc2cc1CCc1ncnc2[nH]cnc12`, the IC50 is > 125000 nM in test [1], > 12000 nM in test [2], 3600 nM in test [3] and 18000 nM in test [4].
Turning to `C[C@H](Nc1ncnc2[nH]cnc12)c1cc2cccc(Cl)c2nc1-c1ccccn1`, the IC50 in test [1] stood at 14000 nM; in test [2], 670 nM; in test [3], 66 nM; in test [4], 150 nM; in test [5], 3.2 nM.
The like results for `Cc1ccccc1-c1nc2c(C)cccc2cc1[C@H](C)Oc1ncnc2[nH]ccc12` were, in that order, 6500 nM, 1000 nM, 7.1 nM, 93 nM and 4.3 nM.
Taken in the same sequence, the figures for `C[C@H](Nc1ncnc2[nH]cnc12)c1nc2ccc(F)cc2nc1-c1ccccn1` were 22000 nM, 4100 nM, 24 nM, 890 nM and 18 nM.
For the molecule `Cc1ncc(F)cc1-c1nc2c(Cl)cccc2cc1[C@H](C)Nc1ncnc2[nH]cnc12`, the 50% inhibitory concentration (IC50) in test [2] came to 1800 nM; in test [3] it was 18 nM; in test [4] it was 230 nM; in test [5], 17 nM.
As for `Cc1ccccc1-c1nc2c(C)cccc2cc1COc1ncnc2[nH]ccc12`, the IC50 is > 125000 nM in test [1]; 3300 nM in test [2]; 38 nM in test [3]; 710 nM in test [4]; 270 nM in test [5].
Taken in the same sequence, the figures for `C[C@H](Nc1ncnc2[nH]cnc12)c1cc2cccc(Cl)c2nc1-c1ccccc1F` were 26000 nM, 420 nM, 3.2 nM, 67 nM and 3.6 nM.
Turning to `C[C@H](Nc1ncnc2[nH]cnc12)c1cc2cccc(Cl)c2nc1-c1cccc(S(C)(=O)=O)c1`, the IC50 stood at 47000 nM in test [1]; 1100 nM in test [2]; 15 nM in test [3]; 770 nM in test [4]; 56 nM in test [5].
Take `Cc1ccccc1-c1nc2c(C)cccc2cc1[C@@H](C)Oc1ncnc2[nH]ccc12`: the IC50 in test [1] is > 125000 nM; in test [2], 7600 nM; in test [3], 2600 nM; in test [4] it was 22000 nM.
For `COc1ccccc1-c1nc2c(C)cccc2cc1CSc1ncnc2[nH]cnc12`, the IC50 in test [1] came to 53000 nM; in test [2], 49000 nM; in test [3] it was 240 nM; in test [4], 8600 nM; in test [5] it was 840 nM.
The like results for `C[C@H](Nc1ncnc2[nH]cnc12)c1nc2cccc(Cl)c2nc1-c1cccc(F)c1` were, in that order, 8100 nM, 1400 nM, 10 nM, 160 nM and 14 nM.
The like results for `C[C@H](Nc1ncnc2[nH]cnc12)c1cc2cccc(C#N)c2nc1-c1ccccn1` were, in that order, 62000 nM, 5200 nM, 43 nM, 1100 nM and 47 nM.
With `Cc1ccccc1-n1c(CNc2nc(N)nc3[nH]cnc23)nc2cccc(C)c2c1=O`, the IC50 in test [1] came to 10000 nM; in test [2], 1800 nM; in test [3], 25 nM; in test [4], 140 nM.
Turning to `Fc1cccc(-c2nc3c(Cl)cccc3cc2CNc2ncnc3[nH]cnc23)c1`, the 50% inhibitory concentration (IC50) worked out at 52000 nM in test [1]; 3700 nM in test [2]; 82 nM in test [3]; 840 nM in test [4]; 28 nM in test [5].
The like results for `C[C@H](Nc1ncnc2[nH]cnc12)c1cc2cccc(Cl)c2nc1-c1cccc(F)c1` were, in that order, 5700 nM, 370 nM, 12 nM, 38 nM and 2.4 nM.
Regarding `Cc1ccccc1-c1nc2c(C)cccc2cc1COc1ncnc2[nH]cnc12`, the IC50 was 42000 nM in test [1]; 1700 nM in test [2]; 17 nM in test [3]; 580 nM in test [4]; 47 nM in test [5].
The like results for `C[C@H](Nc1ncnc2[nH]cnc12)c1cc2cccc(F)c2nc1-c1cc(F)ccc1F` were, in that order, 125000 nM, 1900 nM, 18 nM, 560 nM and 13 nM.
In the case of `C[C@H](Nc1ncnc2[nH]cnc12)c1nc2c(Cl)cccc2nc1-c1ccccn1`, the IC50 in test [1] was 125000 nM; in test [2], 3600 nM; in test [3], 59 nM; in test [4], 6600 nM; in test [5] it was 21 nM.
Regarding `C[C@H](Nc1ncnc2[nH]cnc12)c1cc2cccc(F)c2nc1-c1ccccn1`, the IC50 in test [1] was found to be 125000 nM; in test [2] it was 2200 nM; in test [3], 29 nM; in test [4] it was 1700 nM; in test [5], 14 nM.
`Cc1nnc2ccc(Cl)cc2c1N1CC(C)(C)c2ccc(N3CCOCC3)cc21`: in test [3], the IC50 was found to be 19000 nM. In other words, the double-digit micromolar range.
Consider `C[C@H](Nc1ncnc2[nH]cnc12)c1cc2ccc(F)cc2nc1-c1ccccc1S(C)(=O)=O`, for which the IC50 in test [1] was 20000 nM; in test [2] it was 2100 nM; in test [3] it was 11 nM; in test [4], 340 nM; in test [5], 6.8 nM.
Regarding `C[C@H](Nc1ncnc2[nH]cnc12)c1cc2cccc(F)c2nc1-c1cccc(F)c1`, the IC50 was found to be 1100 nM in test [2], 10 nM in test [3], 250 nM in test [4] and 5.2 nM in test [5].
With `C[C@H](Nc1ncnc2[nH]cnc12)c1cc2ccc(F)cc2nc1-c1cccc(F)c1`, the IC50 in test [1] was 14000 nM; in test [2], 1300 nM; in test [3], 6.6 nM; in test [4], 120 nM; in test [5] it was 13 nM.
`C[C@H](Nc1ncnc2[nH]cnc12)c1cc2cccc(Cl)c2nc1-c1ccccc1Cl`: the concentration for half-maximal inhibition (IC50) in test [1] amounted to 36000 nM; in test [2] it was 1500 nM; in test [3], 8 nM; in test [4] it was 140 nM; in test [5] it was 3.6 nM.
Regarding `C[C@H](Nc1ncnc2[nH]cnc12)c1cc2c(F)cc(F)cc2nc1-c1ccccn1`, the half-inhibitory concentration (IC50) in test [1] came out at 6900 nM; in test [2], 1900 nM; in test [3], 16 nM; in test [4], 610 nM.
`Clc1ccccc1-c1nc2c(Cl)cccc2cc1CNc1ncnc2[nH]cnc12`: the IC50 in test [1] was found to be 46000 nM; in test [2] it was 3900 nM; in test [3], 39 nM; in test [4], 450 nM; in test [5], 25 nM.

Source of the values: the Kinase Knowledgebase extract (Sharma et al. 2016).
